Assay results reported in patent publication US20060223877A1, “Methods of treatment utilizing certain melatonin derivatives” (priority 2005, published 2006).

Columns and labels:
TBI rats = assay: traumatic brain injury, controlled cortical impact model; format: in vivo; conditions: 10 mg/kg intraperitoneally, two doses (15 minutes and 24 hours after TBI), Day 7 morphometry, P=0.01, FIG. 3
From the text: Subjects were male Sprague-Dawley rats weighing 250-300 g housed in a temperature- and humidity-controlled vivarium on a 12:12 hr light:dark cycle with food and water available ad libitum. Animals were subjected to TBI using controlled cortical impact model. (Sullivan et al. 2000a). Animals were anesthetized and their brain cortex exposed. Employing a pneumatically-controlled impactor rod with a 5 mm diameter beveled tip, one of the cortices was compressed at 3.5 m/sec to a predetermined depth of 1.5 mm, resulting in TBI. The other cortex was not injured and left intact. Following the experimental TBI protocol, the animals were randomly divided into two groups and were either treated with vehicle or 10 mg/kg of β-methyl-6-chloromelatonin intraperitoneally (two doses; first dose 15 minutes after TBI and the second 24 hours later). The animals were allowed to recover for 168 hours (seven days). On Day 7, quantitative morphometric image analysis was employed to assess cortical tissue damage. Quantitative morphometry is considered to be the “gold standard” for assessing neuroprotectant drug efficacy in TBI (Sullivan et al., 1999; Sullivan et al., 2000a; Sullivan et al., 2000b).

humans = conditions: 20 mg to 100 mg per day, Zemlan et al., 2005; cited from earlier work
melatonin receptors = conditions: Mulchahey, et al., 2004; cited from earlier work
[1] = tested on: TNF-α stimulated EOC-20 cells; assay: nitrite and PGE2 in TNF-α stimulated EOC-20 microglial cells; format: cell-based; conditions: 20 ng/ml TNF-α-stimulated EOC-20 cells, dose-dependent manner
From the text: The compounds of the present invention are effective in treating neurodegenerative diseases, such as amyotrophic lateral sclerosis (ALS), Alzheimer's disease (AD), Huntington's disease (HD) and Parkinson's disease (PD).
The experiments consisted of treating TNF-α stimulated EOC-20 cells with increasing concentrations of β-methyl-6-chloromelatonin followed by measuring neuroinflammation-associated markers. Neuroinflammation activates microglia to produce proinflammatory cytokines, reactive oxygen species (ROS) and reactive nitrogen species (RNS) in ALS, AD, HD and PD-associated pathophysiology (Deckel, 2001; Cacquevel, 2004; McGeer and McGeer, 2004; Sargsyanet al., 2005). Increase in prostaglandin (PGE2), a potent inflammatory mediator, and nitrite, an indirect measure of RNS production, indicates inflammation-induced neurodegeneration in ALS, AD, HD and PD patients (Milstien et al., 1994; Tohgi et al., 1999; Deckel, 2001 ;Cacquevel, 2004).

male Sprague-Dawley rats = assay: open field test; format: in vivo; conditions: for rearing behavior compared to vehicle controls: FIG. 1; for immobility compared to controls: FIG. 2
Method: Subjects were male Sprague-Dawley rats weighing 250-300 g housed in a temperature- and humidity-controlled vivarium on a 12:12 hr light:dark cycle with food and water available ad libitum. Behavioral testing occurred 2 hrs after lights out. […] All treatments were administered to an animal once (no repeat drug administration) with 8 animals per treatment. The open filed testing procedure has been previously described (Herman et al., 2003). Briefly, the open field apparatus is a 36×36-inch white PLEXIGLAS® enclosure, divided into 36 squares of equal size. Animals are placed into the apparatus and allowed to explore the environment for 5 min. Sessions are videotaped and scored for behavior by an investigator blinded to the treatment condition. Behavior is scored for the two primary outcome measures: rearing and immobility, as well as grooming; and secondary measures of sedation: total mobility and quadrant crossing.

IHI mice = assay: ischemia-hypoxia injury (IHI) model of cerebrovascular disease; format: in vivo; conditions: 10 and 100 mg/kg intraperitoneally 30 minutes before and 30 minutes after hypoxia, Day 3, dose-dependent, FIG. 6
Method: Subjects were 8-12 week old adult male C57B116 mice housed in a temperature- and humidity-controlled vivarium on a 12:12 hr light:dark cycle with food and water available ad libitum. The mice were subjected to ischemia-hypoxia injury (IHI). The injury was rendered by permanently occluding the right common carotid artery and delivering hypoxic gas (7.5% O2) for 30 minutes employing a gas mask under anesthesia. The animal's body temperature was maintained at 36.5-37.5° C. throughout the experiment. For drug efficacy studies, β-methyl-6-chloro-melatonin was administered intraperitoneally 30 minutes before and 30 minutes after hypoxia at doses of 0 (vehicle only), 10 and 100 mg/kg. On Day 3 after injury, quantitative morphometric image analysis was employed to assess infarction size in Nissl-stained brain sections isolated from the animals. β-methyl-6-chloromelatonin administration caused a 33-40% reduction in brain infarct size in IHI mice compared to vehicle-treated IHI mice (FIG. 6). The protection conferred by β-methyl-6-chloromelatonin was dose-dependent.

[2] = tested on: patients with a diagnosis of migraine with or without aura; conditions: daily treatment; Peres et al., 2004; cited from earlier work
middle-aged male rats = conditions: cited from earlier work
[3] = tested on: patients with a diagnosis of fibromyalgia; conditions: cited from earlier work
[4] = tested on: subjects fed a high-fat diet; conditions: daily administration, Pruet-Marcassus et al., 2003; cited from earlier work
[5] = 10 mg/kg i.p. 1 hr prior to open field testing
[6] = 100 mg/kg i.p. 1 hr prior to open field testing
[7] = 10 and 100 mg/kg i.p., P values>0.10

Row | Structure (SMILES) | reduction in damaged cortical tissue compared to vehicle-treated TBI rats (TBI rats) [%] | side effects compared to placebo treatment (humans) | binding to melatonin receptors (melatonin receptors) | nitrite production ([1]; P<0.01, FIG. 4) | increase in PGE2 levels ([1]; P<0.01, FIG. 5) | rearing behavior compared to vehicle controls (male Sprague-Dawley rats; [5]) | immobility compared to controls (male Sprague-Dawley rats; [5]) | rearing behavior compared to vehicle controls (male Sprague-Dawley rats; [6]) | immobility compared to controls (male Sprague-Dawley rats; [6]) | sedative effect: quadrant crossings (male Sprague-Dawley rats; [7]) | sedative effect: total mobility (male Sprague-Dawley rats; [7]) | reduction in brain infarct size compared to vehicle-treated IHI mice (IHI mice) | headache frequency [2] | headache intensity [2] | body weight (middle-aged male rats; daily treatment, middle-aged obesity, Rasmussen et al., 1999) | fat content (middle-aged male rats; middle-age obesity, as opposed to lean body mass) | core symptoms of fibromyalgia (severity of pain, tender point count, patient and physician ratings) ([3]; 20 patients treated for 30 days, Citera et al., 2000) | patient-reported improvement including lack of pain and fatigue ([3]; daily treatment, end of treatment, Acuna-Castroviejo et al., 2006) | body weight [4]
1 | COc1cc2c([C@@H](C)CNC(C)=O)c[nH]c2cc1Cl [β-methyl-6-chloromelatonin, (R)-N-[2-(6-chloro-5-methoxy-1H-indol-3-yl)propyl]acetamide] | 68 | no significant side effects | high affinity | blocked | blocked | significantly increased | significantly decreased | significantly increased | significantly decreased | no significant drug effect | no significant drug effect | 33-40% | – | – | – | – | – | – | –
2 | COc1ccc2[nH]cc(CCNC(C)=O)c2c1 [melatonin] | – | – | – | – | – | – | – | – | – | – | – | – | significant decrease | decrease | significantly decreased | significant decrease | Significant improvement | significant improvement | significantly decreased
